Broadly, the MIC is the lowest concentration that inhibits growth of the organism. As usually defined, the MIC50 is an inhibitory concentration at the 50% level, which refers to growth in some studies and to a panel of isolates in others. Read a low MIC50 as greater potency. For orientation: MIC90 means an inhibitory concentration at the 90% level, which refers to growth in some studies and to a panel of isolates in others.

Values after ≈ are worked out from the molar mass of the structure shown. Active and inactive are the calls of the source. The calls are words filed in the database; no cut-off is given here.

In assay [1] the test system is Staphylococcus hominis. The experiment in a line: Antibacterial activity against methicillin-resistant coagulase-negative Staphylococcus hominis by CLSI dilution method. In kind it is functional.
For a further assay, the system named is Enterococcus. As to the kind of experiment: Antibacterial activity against Enterococcus by CLSI dilution method. In kind it is functional, organism-based.
The test system of a further assay is Serratia marcescens. As to the kind of experiment: Antibacterial activity against Serratia marcescens by CLSI dilution method. In kind it is functional, organism-based.
Assay [2] concerns Staphylococcus haemolyticus. As to the kind of experiment: Antibacterial activity against methicillin-resistant coagulase-negative Staphylococcus haemolyticus by CLSI dilution method. Format: functional.
The test system of assay [3] is Staphylococcus aureus. The experiment in a line: Antibacterial activity against methicillin-resistant Staphylococcus aureus by CLSI dilution method. Format: functional.
Another assay deals with Vibrio sp. As to the kind of experiment: Antibacterial activity against Vibrio sp. by CLSI dilution method. Format: functional, organism-based.
The next assay has as its system Nocardia sp. As to the kind of experiment: Antibacterial activity against Nocardia sp. by CLSI dilution method. In kind it is functional, organism-based.
In a further assay the test system is Citrobacter freundii. As to the kind of experiment: Antibacterial activity against Citrobacter freundii by CLSI dilution method. In kind it is functional, organism-based.
For the next assay, the system named is Aeromonas sp. The experiment in a line: Antibacterial activity against Aeromonas sp. by CLSI dilution method. Format: functional, organism-based.
Assay [4] has as its system Staphylococcus haemolyticus. As to the kind of experiment: Antibacterial activity against methicillin-susceptible coagulase-negative Staphylococcus haemolyticus by CLSI dilution method. Format: functional.
Assay [5] has as its system Staphylococcus sp. The experiment in a line: Antibacterial activity against methicillin-susceptible coagulase-negative Staphylococcus sp. by CLSI dilution method. In kind it is functional.
In assay [6] the test system is Staphylococcus sp. As to the kind of experiment: Antibacterial activity against methicillin-resistant coagulase-negative Staphylococcus sp. by CLSI dilution method. Format: functional.
The next assay concerns Neisseria gonorrhoeae. As to the kind of experiment: Antibacterial activity against Neisseria gonorrhoeae by CLSI dilution method. Format: functional, organism-based.
In the next assay the test system is Klebsiella pneumoniae. As to the kind of experiment: Antibacterial activity against Klebsiella pneumoniae by CLSI dilution method. Format: functional, organism-based.
Another assay relates to Escherichia coli. As to the kind of experiment: Antibacterial activity against sEscherichia coli by CLSI dilution method. In kind it is functional, organism-based.
The next assay relates to Pseudomonas aeruginosa. The experiment in a line: Antibacterial activity against sPseudomonas aeruginosa by CLSI dilution method. In kind it is functional, organism-based.
A further assay concerns Corynebacterium. The experiment in a line: Antibacterial activity against […] by CLSI dilution method. Format: functional, organism-based.
The test system of the next assay is Helicobacter pylori. The experiment in a line: Antibacterial activity against Helicobacter pylori by CLSI dilution method. Format: functional, organism-based.
For another assay, the system named is Haemophilus influenzae. As to the kind of experiment: Antibacterial activity against sHaemophilus influenzae by CLSI dilution method. Format: functional, organism-based.
Assay [7] has as its system Staphylococcus hominis. As to the kind of experiment: Antibacterial activity against methicillin-susceptible coagulase-negative Staphylococcus hominis by CLSI dilution method. In kind it is functional.
The test system of a further assay is Mammaliicoccus sciuri. As to the kind of experiment: Antibacterial activity against methicillin-resistant coagulase-negative Staphylococcus sciuri by CLSI dilution method. In kind it is functional.
For assay [8], the system named is Staphylococcus saprophyticus. As to the kind of experiment: Antibacterial activity against methicillin-resistant coagulase-negative Staphylococcus saprophyticus by CLSI dilution method. Format: functional.
Another assay has as its system Morganella morganii. The experiment in a line: Antibacterial activity against Morganella morganii by CLSI dilution method. In kind it is functional, organism-based.
The test system of the next assay is Enterobacter cloacae. As to the kind of experiment: Antibacterial activity against sEnterobacter cloacae by CLSI dilution method. Format: functional, organism-based.
Assay [9] deals with Staphylococcus aureus. As to the kind of experiment: Antibacterial activity against methicillin-susceptible Staphylococcus aureus isolate by CLSI dilution method. Format: functional.
The test system of assay [10] is Staphylococcus epidermidis. As to the kind of experiment: Antibacterial activity against methicillin-resistant coagulase-negative Staphylococcus epidermidis by CLSI dilution method. In kind it is functional.
The subject of assay [11] is Staphylococcus epidermidis. As to the kind of experiment: Antibacterial activity against methicillin-susceptible coagulase-negative Staphylococcus epidermidis by CLSI dilution method. In kind it is functional.
The next assay has as its system Acinetobacter baumannii. As to the kind of experiment: Antibacterial activity against sAcinetobacter baumannii by CLSI dilution method. Format: functional, organism-based.
The next assay has as its system Listeria monocytogenes. As to the kind of experiment: Antibacterial activity against Listeria monocytogenes by CLSI dilution method. In kind it is functional, organism-based.
A further assay deals with Campylobacter fetus. As to the kind of experiment: Antibacterial activity against Campylobacter fetus by CLSI dilution method. In kind it is functional, organism-based.
For another assay, the system named is Moraxella catarrhalis. As to the kind of experiment: Antibacterial activity against Moraxella catarrhalis by CLSI dilution method. In kind it is functional, organism-based.
For another assay, the system named is Staphylococcus simulans. As to the kind of experiment: Antibacterial activity against methicillin-susceptible coagulase-negative Staphylococcus simulans by CLSI dilution method. In kind it is functional.
For another assay, the system named is Streptococcus. The experiment in a line: Antibacterial activity against Streptococcus by CLSI dilution method. In kind it is functional, organism-based.
For assay [12], the system named is Staphylococcus aureus. The experiment in a line: (§1) Antibacterial activity against methicillin-resistant Staphylococcus aureus isolate assessed as percent resistant isolates by CLSI dilution method. Format: functional.
Assay [13] has as its system Staphylococcus sp. As to the kind of experiment: Antibacterial activity against methicillin-susceptible coagulase-negative Staphylococcus sp. assessed as percent resistant isolates by CLSI dilution method. Format: functional.
Assay [14] deals with Staphylococcus sp. The experiment in a line: (§2) Antibacterial activity against methicillin-susceptible coagulase-negative Staphylococcus sp. assessed as percent susceptible isolates by CLSI dilution method. Format: functional.
For assay [15], the system named is Staphylococcus aureus. The experiment in a line: Antibacterial activity against methicillin-susceptible Staphylococcus aureus isolate assessed as […] isolates by CLSI dilution method. In kind it is functional.
For assay [16], the system named is Staphylococcus aureus. The experiment in a line: Antibacterial activity against methicillin-resistant Staphylococcus aureus isolate assessed as percent susceptible isolates by CLSI dilution method. In kind it is functional.
The subject of assay [17] is Staphylococcus aureus. The assay is described as §1. In kind it is functional. The source holds these as a separate data set.
In assay [18] the test system is Staphylococcus sp. The experiment in a line: Antibacterial activity against methicillin-resistant coagulase-negative Staphylococcus sp. assessed as percent resistant isolates by CLSI dilution method. Format: functional.
Assay [19] has as its system Staphylococcus sp. The assay is described as §2. Format: functional. The source holds these as a separate data set.

For `Cc1c(N)cccc1Cn1ccc(OCCc2cccs2)cc1=O` [CG-400549], the MIC with Staphylococcus hominis [1] came out at 4 µg/mL (≈ 11.7 µM); in [2], 2 µg/mL (≈ 5.87 µM); in assay [4], 2 µg/mL (≈ 5.87 µM); against Staphylococcus hominis [7] it was 4 µg/mL (≈ 11.7 µM); in the assay on Mammaliicoccus sciuri, 4 µg/mL (≈ 11.7 µM); in assay [8] it was 8 µg/mL (≈ 23.5 µM). Besides, the MIC in assay [10] was 4 µg/mL (≈ 11.7 µM); in assay [11], 8 µg/mL (≈ 23.5 µM); against Staphylococcus simulans it was 4 µg/mL (≈ 11.7 µM). Moreover, the outcome with Enterococcus, with Serratia marcescens, in the assay on Vibrio sp., with Nocardia sp., in the assay with Citrobacter freundii and in the assay on Aeromonas sp. was Active. Further, the result with Neisseria gonorrhoeae, in the assay on Klebsiella pneumoniae, in the assay with Escherichia coli, in the assay on Pseudomonas aeruginosa, with Corynebacterium and in the assay with Helicobacter pylori was Active. The result with Haemophilus influenzae, in the assay with Morganella morganii, with Enterobacter cloacae, in the assay with Acinetobacter baumannii, in the assay with Listeria monocytogenes and in the assay on Campylobacter fetus was Active. The result with Moraxella catarrhalis and in the assay with Streptococcus was Active. The MIC50 with Staphylococcus aureus [3], against Staphylococcus sp. [5], against Staphylococcus sp. [6] and with Staphylococcus aureus [9] was 0.5 µg/mL (≈ 1.47 µM) throughout. The MIC90 turned out to be 0.5 µg/mL (≈ 1.47 µM) with Staphylococcus aureus [3], 8 µg/mL (≈ 23.5 µM) in the assay with Staphylococcus sp. [5], 4 µg/mL (≈ 11.7 µM) against Staphylococcus sp. [6] and 0.5 µg/mL (≈ 1.47 µM) with Staphylococcus aureus [9].

Consider `CCC[C@@H]1C[C@@H](C(=O)N[C@@H]([C@H]2O[C@H](SC)[C@H](O)[C@@H](O)[C@H]2O)[C@H](C)Cl)N(C)C1` [CLINDAMYCIN], for which the Activity with Staphylococcus aureus [12] is listed as 0%; in the assay on Staphylococcus sp. [13], 3%; in the assay on Staphylococcus sp. [14], 97%; in the assay with Staphylococcus aureus [15] it was 100%; in the assay with Staphylococcus aureus [16], 12%; in the assay on Staphylococcus aureus [17] it was 88%. In addition, the Activity in the assay on Staphylococcus sp. [18] is listed as 54%; in the assay with Staphylococcus sp. [19], 44%. Besides, the MIC50 is more than 128 µg/mL in the assay on Staphylococcus aureus [3], 0.12 µg/mL (≈ 0.282 µM) in the assay with Staphylococcus sp. [5], more than 128 µg/mL against Staphylococcus sp. [6] and 0.12 µg/mL (≈ 0.282 µM) in the assay on Staphylococcus aureus [9]. The MIC90 in the assay on Staphylococcus aureus [3] was more than 128 µg/mL; against Staphylococcus sp. [5], 0.25 µg/mL (≈ 0.588 µM); in the assay with Staphylococcus sp. [6], more than 128 µg/mL; in the assay with Staphylococcus aureus [9], 0.12 µg/mL (≈ 0.282 µM).

Take `CC[C@H]1OC(=O)[C@H](C)[C@@H](O[C@H]2C[C@@](C)(OC)[C@@H](O)[C@H](C)O2)[C@H](C)[C@@H](O[C@@H]2O[C@H](C)C[C@H](N(C)C)[C@H]2O)[C@](C)(O)C[C@@H](C)C(=O)[C@H](C)[C@@H](O)[C@]1(C)O` [ERYTHROMYCIN]: the Activity in the assay on Staphylococcus aureus [12] worked out at 12%; in the assay with Staphylococcus sp. [13], 17%; in the assay with Staphylococcus sp. [14], 78%; in the assay on Staphylococcus aureus [15], 88%; in the assay with Staphylococcus aureus [16] it was 5%; in the assay with Staphylococcus aureus [17] it was 95%. Also, the Activity is 80% with Staphylococcus sp. [18] and 20% in the assay on Staphylococcus sp. [19]. Besides, the MIC50 is more than 128 µg/mL against Staphylococcus aureus [3], 0.25 µg/mL (≈ 0.341 µM) against Staphylococcus sp. [5], 128 µg/mL (≈ 174 µM) in the assay on Staphylococcus sp. [6] and 0.5 µg/mL (≈ 0.681 µM) with Staphylococcus aureus [9]. Moreover, the MIC90 with Staphylococcus sp. [5] was 128 µg/mL (≈ 174 µM); with Staphylococcus sp. [6], more than 128 µg/mL; in the assay with Staphylococcus aureus [9] it was more than 128 µg/mL.

As to `C[C@H]1COc2c(N3CCN(C)CC3)c(F)cc3c(=O)c(C(=O)O)cn1c23.C[C@H]1COc2c(N3CCN(C)CC3)c(F)cc3c(=O)c(C(=O)O)cn1c23.O` [LEVOFLOXACIN], the Activity with Staphylococcus aureus [12] is reported as 0%; with Staphylococcus sp. [13] it was 0%; in the assay with Staphylococcus sp. [14] it was 100%; in the assay on Staphylococcus aureus [15] it was 100%; in the assay with Staphylococcus aureus [16] it was 7%; in the assay on Staphylococcus aureus [17], 93%. For the same molecule, the values for the Activity in the assay on Staphylococcus sp. [18] and with Staphylococcus sp. [19] were 60% and 35%, respectively. The MIC50 in the assay with Staphylococcus aureus [3] was 16 µg/mL; in the assay with Staphylococcus sp. [5] it was 0.25 µg/mL; against Staphylococcus sp. [6], 4 µg/mL; in the assay with Staphylococcus aureus [9], 0.25 µg/mL. In addition, the MIC90 in the assay with Staphylococcus aureus [3] was more than 128 µg/mL; against Staphylococcus sp. [5], 0.25 µg/mL; against Staphylococcus sp. [6], 32 µg/mL; in the assay on Staphylococcus aureus [9], 0.5 µg/mL.

The values above are taken from ChEMBL document CHEMBL1150783, “In vitro activities of CG400549, a novel FabI inhibitor, against recently isolated clinical staphylococcal strains in Korea” (2007).
